From patent US20230147744A1, “METHODS TO ENRICH ENTEROENDOCRINE CELLS AND THEIR SUBTYPES IN THE CONTIGUOUS, INTESTINAL MONOLAYER SYSTEMS” (The University of North Carolina at Chapel Hill, priority 2020, published 2023)
Where “and” joins values, the source holds several entries; their conditions need not be identical. Equal values may be shown once.

Tests used:
[1] = tested on: EC cells in monolayers derived from human transverse colon stem cells; experiment: 5HT secretion assay (ELISA of basal medium) on stem-cell-derived colonic monolayers after apical stimulation; type: cell-based; conditions: for 5HT induction: pungent food ingredient screen, apical stimulation 4 h, EC-enriched monolayers, donor 2
[2] = tested on: EC cells in monolayers derived from human transverse colon stem cells; experiment: as above; type: cell-based
Text: Culture conditions for intestinal epithelial monolayer platform have been optimized in a previous publication, and the medium composition for yielding the maximal expression levels of EEC cell lineage marker gene ChgA was investigated.^11 Nicotinamide and p38 MAP kinase inhibitor (SB202190), two compounds commonly used in intestinal epithelial cell culture, are removed from medium due to their suppression of differentiation towards secretory cells. Inclusion of A 8301, a TGF-β receptor signaling inhibitor, is required for proper differentiation and cell morphology of monolayer cultures. Herein, the same medium composition was adopted and the in vitro monolayers were generated from stem cells derived from human transverse colon using the traditional submerged culture. The EEC (ChgA+) and EC (5HT+) cells presented at a density of 22±5 and 10±3 mm^−2, respectively (FIG. 2A, 2B). Accordingly, the total number of EC cells in a 96-well insert (surface area=11 mm^2) is 110±33. To test if the number of EC cells is enough for functional assays, the monolayers were stimulated with vehicle (dimethyl sulfoxide [DMSO]) or forskolin (10 μM) at the apical side for 4 h, and the released 5HT from the basal side was collected and quantified (FIG. 2C). Forskolin is a potent stimulus of 5HT release though activation of the cAMP-dependent pathway.^18 In three independent experiments, stimulated 5HT secretion by forskolin was 0.97±0.34, 0.88±0.28, and 0.60±0.23 ng/mL, respectively, corresponding to 3.6×, 2.1× and 2.4× induction over the vehicle controls (0.27±0.10, 0.42±0.18 ng/mL, and 0.25±0.07 respectively). Significant inter-experiment variability was observed due to high standard deviation of the 5HT measurements: the results in the first experiment were considered to be statistically non-significant (p>0.05, t-test), statistically significant (p<0.05) in the second one, but statistically non-significant (p>0.05) again in the third experiment. The high standard deviation came from a number of sources: error in 5HT measurement through enzyme-linked immunosorbent assay (ELISA), well-to-well variation, 5HT residue (mainly from the fetal bovine serum in the medium) left in the well, and 5HT that spontaneously leached out from the apoptotic ECs during assay. To improve the reliability of 5HT secretion assay and its signal/background ratio, the number of EEC and EC cells in monolayers need to be enriched.
(§1) The fraction of EC among EEC remained in the range of 45-51% in these differentiation conditions, which is consistent with their fraction in the body that EC make up over 70% of the EEC population in the proximal colon and falls to around 40% in the rectum.^2 To test if the enriched EC cells increases 5HT secretion, the monolayers were stimulated with vehicle (DMSO) or forskolin (10 μM). […] The induction is 6.1× over the vehicle control (0.62±0.07 ng/mL). Therefore, the enriched EC cells improves the 5HT secretion assay by increasing the signal/background ratio.
As the generation and storage of 5HT inside granules of EC cells depends on the cell maturation, the level of 5HT secretion is affected by the differentiation length of the monolayers. To find out the optimal duration for differentiation, the monolayers were subjected to VIP-assisted ALI culture for 3-7 days. As expected, the forskolin stimulated 5HT secretion increased with differentiation length (due to cell maturation), so did the non-stimulated basal secretion (FIG. 4E). The barrier integrity was remained (Papp<4×10^−7 cm/s) for all samples, except for those under 7 days in differentiation in which the cells may start to undergo apoptosis (FIG. 4F). 5 days in differentiation was considered to be optimal since it generated monolayers with high 5HT induction (5.7×) and monolayer barrier integrity. This duration is coincident with life span of differentiated epithelium in human colon. Unless otherwise specified, 5 days were used for differentiation in this invention. […]

[3] = tested on: EEC (ChgA+) and EC (5HT+) cells; experiment: Number of EEC (ChgA+) and EC (5HT+) cells on monolayers by immunofluorescence staining; type: cell-based
Protocol: as §1
It is likely that stem cells make lineage-fate decisions at the proliferation stage toward enterocytes and goblets cells, which are the major cell types in the intestinal epithelium. We can add signaling molecules, such as CHIR99021, to prevent the early lineage-fate decision and force the stem cells to stay at their ground state. CHIR99021 activates Wnt signaling by inhibition of GSK3. When the stem cells were cultured in EM under 3 μM CHIR99021 prior to conventional submerged culture in DM, the presence of EC cells was increased by almost 200% (FIGS. 11A and 11B). […] Besides CHIR99021, other Wnt activators (WAY316606, ABC99, IQ1, arylpyrimidine), and recombinant proteins of Wnt-3A and R-spondin (Wnt signaling enhancer) may be able to increase the formation of EC cells. We have not studied the synergistic effect of Wnt activator (in EM) and VIP-assisted ALI (in DM), but we expect the combination of both strategies will further increase the formation of EEC and EC cells.

[4] = tested on: colonic monolayers derived from human transverse colon; experiment: Monolayer barrier integrity (Papp, TEER); type: cell-based; conditions: VIP-assisted ALI culture, n=6
Text: Besides the elevated 5HT secretion, an additional advantage of VIP-assisted ALI culture is the improved barrier integrity (FIG. 4D). […] The cell respiration combined with the low diffusion rate of oxygen in the growth medium can lead to a reduced oxygen availability to the cells.^22 ALI culture can increase the oxygen availability, but the cells were stressed due to the complete dry up at the apical surface. […] Conversely, VIP-assisted ALI culture maintained a thin layer of fluid (about 0.4 mm thick) at the apical side, thus increasing the oxygen availability and at the same time as eliminating the stress from dry up. The high integrity of monolayers is needed to effectively segregates the apical and basal reservoirs to prevent the leakage of the stimulants and 5HT.

GLP-1+ L cells = experiment: Density of GLP-1+ L-cells on differentiated colonic monolayers; type: cell-based, human; conditions: for formation of L-cells: addition during differentiation, 4 days
Text: Enteroendocrine (EEC) cells within the intestinal epithelium consist of at least 15 different subtypes. Enterochromaffin (EC) cells are the most abundant subtype, comprising about 40% of EEC cells in the gastrointestinal tract. Besides EC cells, at least one other important EE subtype is L-cells, which are major regulators of the gut-brain interactions and are pivotal in regulating appetite and glucose homeostasis^4. L-cells co-secrete peptide hormones GLP-1 and PYY in response to the ingestion of food^5-8. GLP-1 stimulates the secretion of insulin from pancreatic β-cells^9,10, decreases gastric emptying and increases satiation^11. PYY slows GI motility and reduces food intake^12. Due to their important function as regulators of postprandial response to nutrients, L-cells are of specific interest in the field of obesity and diabetes^3-17. L-cells were also identified in the VIP-ALI cultured monolayers at a density of 12±2 mm^2 and constituted about 14% of the EE population (FIG. 7). However, the density of L-cells is still too low to perform a reliable functional assay of GLP-1/PYY secretion. Thus, further experiments were conducted to develop optimal protocols to enrich L-cells (see Example 7).
Experiments were conducted to systemically optimize four conditions to enrich L-cells: (1) ±ALI, (2) ±VIP, (3) R-spondin/Noggin ratio at 1:4, 1:1 and 4:1 in differentiation medium, (4) ±BIMU8 (a potent 5-HT4 agonist). The colonic stem cells were plated on a porous membrane coated with Matrigel and cultured for 3 days in growth factor-enriched medium until the cell monolayer reach confluence. Then the cells were differentiated for 4 days and the density of GLP-1^+ L cells was used as the readout (FIG. 8A). […] The R-spondin/Noggin ratio in differentiation medium also affected the density of L-cells, and the best result was obtained by using a ratio of 4/1. By using the conditions disclosed herein (ALI, VIP, R-spondin/Noggin=4/1, BIMU8), 137±12 cells/mm^2 GLP-1^+ L-cells were obtained, which is about 46 times higher than 3±2 cells/mm^2 in the previously used conditions (submerged, —VIP, R-spondin/Noggin=1/1, -BIMU8), and 11 times higher than 12±2 mm^2 in VIP-ALI culture (+ALI, +VIP, R-spondin/Noggin=1/1, -BIMU8).

[5] = ALI, VIP, R-spondin/Noggin=4/1, BIMU8

In the case of COc1cc(/C=C/C(=O)CC(=O)/C=C/c2ccc(O)c(OC)c2)ccc1O [curcumin], the EC50 ([1]; Homo sapiens, dose-dependent stimulation of 5HT secretion, read-out: median effective dose (E50) for 5HT secretion) is reported as 51 µM and the 5HT induction [1] is reported as 7.3 ×.
C=C[C@@]1(C)CC(=O)[C@]2(O)[C@@]3(C)[C@@H](O)CCC(C)(C)[C@@H]3[C@H](O)[C@H](OC(C)=O)[C@@]2(C)O1 [forskolin] was tested, and the 5HT induction [1] was 4.9 ×, the “5HT induction (forskolin/DMSO)” value ([2]; donor 1, 2, and 5) was > 5.0 and the “5HT induction (forskolin/DMSO)” value ([2]; donor 3 and 4) was < 3.6. For the same molecule, the “stimulated 5HT secretion” value ([2]; forskolin 10 μM apical 4 h, monolayers from traditional submerged culture, independent experiments) was 0.97 ± 0.34 ng/mL and 0.88 ± 0.28 ng/mL and 0.60 ± 0.23 ng/mL and 0.97 ± 0.44 ng/mL, the “induction of 5HT secretion over the vehicle control” value ([2]; forskolin 10 μM apical 4 h, submerged culture, three independent experiments) was 3.6 × and 2.1 × and 2.4 × and the “induction of 5HT secretion over the vehicle control” value ([2]; forskolin 10 μM, VIP-assisted ALI culture) was 6.1 ×. The “5HT secretion higher than that from submerged culture” value ([2]; forskolin 10 μM, VIP-assisted ALI vs submerged culture) was 390%, the “5HT secretion under forskolin stimulation” value ([2]; forskolin 10 μM, monolayer from VIP-assisted ALI culture) was 3.79 ± 0.57 ng/mL and the 5HT induction ([2]; forskolin, VIP-assisted ALI culture, 5 days in differentiation (duration study 3-7 days)) was 5.7 ×. The “induction of 5HT secretion (forskolin/DMSO)” value ([2]; stem cell passage numbers 7, 9, 11, 13 and 15) was 4.1-5.7 ×.
O=CC=Cc1ccccc1 [Cinnamaldehyde] showed a 5HT induction [1] of 1.8 ×.
In the case of Cc1c[nH]c(-c2cnc(NCCNc3ccc(C#N)cn3)nc2-c2ccc(Cl)cc2Cl)n1 [CHIR99021], the “increase of presence of EC cells” value ([3]; 3 μM CHIR99021 in EM prior to conventional submerged culture in DM) is reported as ~200%.
With vasoactive intestinal peptide [VIP] the “transepithelial electrical resistance (TEER)” value [4] was 842±166 ohms cm^2, the “number of EC compared with submerged culture” value ([3]; VIP added to submerged culture) was 180% and the “number of EEC compared with submerged culture” value ([3]; VIP added to submerged culture) was 177%. For the same molecule, the “density of EC” value ([3]; combination of ALI and VIP) was 43±9 mm^−2, the “density of EEC” value ([3]; combination of ALI and VIP) was 83±11 mm^−2 and the “number of EC compared with traditional submerged culture without VIP” value ([3]; combination of ALI and VIP) was 430%. For the same molecule, the “number of EEC compared with traditional submerged culture without VIP” value ([3]; combination of ALI and VIP) was 377%, the “L-cells as share of the EE population” value (GLP-1+ L cells; VIP-ALI cultured monolayers) was “about 14%” and the “formation of L-cells” value (GLP-1+ L cells) was “increased the formation of L-cells”.
In the case of CC(C)n1c(=O)n(C(=O)NC2CC3CCC(C2)N3C)c2ccccc21 (stereo not drawn) [BIMU8], the “L-cell density, times higher than VIP-ALI culture (+ALI, +VIP, R-spondin/Noggin=1/1, -BIMU8)” value (GLP-1+ L cells; [5]) is reported as 11 times, the “L-cell density, times higher than previously used conditions (submerged, -VIP, R-spondin/Noggin=1/1, -BIMU8)” value (GLP-1+ L cells; [5]) is reported as “about 46 times” and the “GLP-1+ L-cells density” value (GLP-1+ L cells; ALI, VIP, R-spondin/Noggin=4/1, BIMU8, 4 days differentiation) is reported as 137±12 cells/mm^2. The “formation of L-cells” value (GLP-1+ L cells) was “increased the formation of L-cells”.
